Assay results published in publication PMC9022229, “Induction of Paraptosis by Cyclometalated Iridium Complex-Peptide Hybrids and CGP37157 via a Mitochondrial Ca^2+ Overload Triggered by Membrane Fusion between Mitochondria and the Endoplasmic Reticulum” (Biochemistry, 2022).
Residues, ends and D or L forms follow the SMILES beside them. *: point of attachment. X1 = O=C(COc1ccc(-c2ccccn2)cc1)NCCCCCCCCN*

Key:
[1] = system: IMR90 cells; set-up: method as in PMID 25875312, PMID 28032992, doi:10.1002/ejic.201700846, PMID 30154833, PMID 30177492; details: Chart 1, normal cell line, previously reported; read-out: EC50 against IMR90 cells; cited from earlier work
[2] = system: Jurkat cells; assay: Cytosolic Ca2+ by flow cytometry with Rhod-4; assay type: cell-based
Description: Other characteristic phenomena of paraptosis such as a mitochondrial Ca^2+ overload and loss of mitochondrial membrane potential (ΔΨm) induced by CGP37157 were also examined. Intracellular Ca^2+ concentrations were measured by flow cytometry using red-emitting Ca^2+ probes, Rhod-2 (a mitochondrial Ca^2+ probe) and Rhod-4 (a cytosolic Ca^2+ probe). Jurkat cells were stained with Rhod-2/AM or Rhod-4/AM (at 5 μM) and then treated with CGP37157 (100 μM) or 4 (5 μM) for a given period of incubation, immediately after which the emission intensity of Rhod-2 and Rhod-4 was measured by flow cytometry. […]
In a 1.5 mL Eppendorf tube, Jurkat cells (2.0 × 10^5 cells) were incubated in the presence of Rhod-2/AM (5 μM, 100 μL) or Rhod-4/AM (5 μM, 100 μL) in 10% FBS/RPMI 1640 medium for 30 min at 37 °C under 5% CO2 and then treated with 4 (5 μM, 0–30 min) or CGP37157 (100 μM, 0–6 h) in 10% FBS/RPMI 1640 medium (100 μL) for 30 min at 37 °C under 5% CO2. Immediately after the treatment, 10% FBS/RPMI 1640 medium (300 μL) was added to the cells and the samples were analyzed on a flow cytometer (FACSCalibur cytometer, Becton). The data were analyzed on FlowJo software (FlowJo, LCC).

[3] = system: Jurkat cells; set-up: method as in PMID 25875312, PMID 28032992, doi:10.1002/ejic.201700846, PMID 30154833, PMID 30177492; details: Chart 1, previously reported; read-out: EC50 against Jurkat cells; cited from earlier work
[4] = system: Jurkat cells; assay: TEM analysis of cytoplasmic vacuolization; assay type: cell-based
Description: The morphological changes in Jurkat cells induced by CGP37157 (Figure 3B) were similar to those induced by 4 (Figure 1B) and confirmed in detail by TEM (transmission electron microscopy). Jurkat cells were treated with CGP37157 (100 μM) for 12 h, prefixed with glutaraldehyde and postfixed with osmium tetroxide (OsO4), and included in Poly 812 resin. The resulting samples were sliced and then observed by TEM. […] Similar TEM images were reported with respect to paraptosis-inducing natural compounds by some research groups: (i) paraptosis in MDA-MB 435S cells,[17] HeLa cells,[18] and Jurkat cells (Figure 4d and in our previous publications)[56]−[58] induced by celastrol, (ii) paraptosis in HeLa cells induced by 8-p-hydroxybenzoyl tovarol,[23] and (iii) paraptosis in A2780 cells and SKOV-3 cells induced by morusin.[22] Therefore, we believe that Jurkat cells undergo vacuolization in the paraptotic processes induced by 4 and CGP37157, as well as celastrol.
In a 1.5 mL Eppendorf tube, Jurkat cells (3.0 × 10^6 cells) were incubated with 4 (5 μM for 3 h), CGP37157 (100 μM for 12 h), and celastrol (1 μM for 24 h) in 10% FBS/RPMI 1640 medium at 37 °C under 5% CO2. After centrifugation (2000 rpm, 3 min, 4 °C), the cells were washed twice with PBS, prefixed with glutaraldehyde (2.5%) at 4 °C for 40 min, and then washed twice with PBS. Osmium tetroxide (1%) was used for postfixation, and the solution was incubated at 4 °C for 30 min. The cells were washed with PBS, included in an agarose gel, and dehydrated by using 50–100% and anhydrous EtOH. The cells were embedded into Poly 812 resin (Nisshin EM Co. Ltd.) at 60 °C for 3 days. The resin was sliced with a glass knife (150 nm thickness) on an ultramicrotome (EM UC6, Leica), and the samples were stained with EM stainer (Nisshin EM Co. Ltd.) and observed on TEM instrument (H-7650, Hitachi) with electron irradiation at 100 kV.

[5] = system: HeLa S3 cells; assay: MTT assay of HeLa S3 cells; assay type: cell-based, human; details: 24 h, 10% FBS/MEM, 37 °C, 5% CO2
Description: (§1) HeLa S3 and A549 cells (2.0 × 10^4 cells/well) were seeded on a 96-well plate (BD Falcon) in cell culture medium and incubated overnight at 37 °C under 5% CO2. Jurkat (2.0 × 10^4 cells/well), HeLa S3, and A549 cells were treated with 4 (0–25 μM) and CGP37157 (0–100 μM) for 1, 3, 6, 12, and 24 h at 37 °C under 5% CO2, after which a MTT solution in PBS (0.5%, 10 μL) was added to each well.
(§2) Figure S3. MTT assay of HeLa S3 cells (plain curves with filled circles) and A549 cells (dashed curves with filled squares) treated with CGP37157 (0–100 µM) in 10% FBS/MEM (HeLa S3 cells) and 10% FBS/DMEM (A549 cells) for 24 h at 37 °C under 5% CO 2.
(§3) Figure S4. MTT assay of Jurkat cells treated with inhibitors of programmed cell death; Z-VAD-fmk (an apoptosis inhibitor), necrostatin-1 (Nec-1: a necroptosis inhibitor), and 3-methyl adenine (3-MA, an autophagy inhibitor) in the presence of CGP37157 (100 µM, 12 h). Values are shown as the mean ± SD for three independent experiments. ** P < 0.01.
(§4) (also on this page, place not known: Cell viability (% control) CO2. 50 Cell viability (% control) 0300 00030 of)

[6] = system: A549 cells; assay: MTT assay of A549 cells; assay type: cell-based, human; details: 24 h, 10% FBS/DMEM, 37 °C, 5% CO2
Description: as §1, §2, §3, §4

NCCCC[C@H](NC(=O)[C@H](CCCCN)NC(=O)[C@@H](N)CCCCN)C(=O)NCC(=O)NCC(=O)NCCCCCCCCNC(=O)COc1ccc(-c2ccccn2)cc1 [compound 4] (H-KKKGG-X1)
EC50 [1]: > 25 µM
Emission of Rhod-4 (cytosolic Ca2+) ([2]; 4 at 5 μM, 10–30 min): small emission enhancement
EC50 [3]: 1.5 µM
Morphological change by TEM ([4]; 4 at 5 μM, 3 h): cytoplasmic vacuolization

O=C1CSC(c2ccccc2Cl)c2cc(Cl)ccc2N1 (centres unmarked) [CGP37157]
EC50 [5]: 45 µM
Emission of Rhod-4 (cytosolic Ca2+) ([2]; CGP37157 100 μM, 1–6 h): small emission enhancement
EC50 [6]: 81 µM
Morphological change by TEM ([4]; CGP37157 100 μM, 12 h): cytoplasmic vacuolization
